Results as given in patent US20260215423A1, “NOVEL CARBOXAMIDE AND SULFONAMIDE PESTICIDAL COMPOUNDS” (SYNGENTA CROP PROTECTION AG, priority 2023, published 2026).

Columns and labels:
Format in all cases: in vivo
[1] = system: Myzus persicae (Green Peach Aphid); assay: Myzus persicae (Green Peach Aphid): Feeding/Contact Activity, sunflower leaf discs; settings: foliar, 144 h, application rate of 200 ppm, sunflower leaf discs sprayed, aphid population of mixed ages, 6 days after infestation
Experimental: Example B6: Myzus persicae (Green Peach Aphid):Feeding/Contact Activity
Sunflower leaf discs were placed onto agar in a 24-well microtiter plate and sprayed with aqueous test solutions prepared from 10′000 ppm DMSO stock solutions. After drying, the leaf discs were infested with an aphid population of mixed ages. The samples were assessed for mortality 6 days after infestation.

[2] = system: Myzus persicae (Green Peach Aphid); assay: Myzus persicae (Green Peach Aphid). Intrinsic Activity; settings: 120 h, test rate of 12 ppm, mixed with sucrose solution, feeding through Parafilm, 5 days after infestation
Source text: Example B7: Myzus persicae (Green Peach Aphid). Intrinsic Activity
Test compounds prepared from 10′000 ppm DMSO stock solutions were applied by pipette into 24-well microtiter plates and mixed with sucrose solution. The plates were closed with a stretched Parafilm. A plastic stencil with 24 holes was placed onto the plate and infested pea seedlings were placed directly on the Parafilm. The infested plate was closed with a gel blotting paper and another plastic stencil and then turned upside down. The samples were assessed for mortality 5 days after infestation.

[3] = system: Diabrotica balteata (Corn root worm); assay: Diabrotica balteata (Corn root worm); settings: 96 h, application rate of 200 ppm, maize sprouts sprayed, L2 larvae, 4 days after infestation, read-out: effect in at least one of the two categories (mortality or growth inhibition)
Experimental: Example B2: Diabrotica balteata (Corn root worm)
Maize sprouts placed onto an agar layer in 24-well microtiter plates were treated with aqueous test solutions prepared from 10′000 ppm DMSO stock solutions by spraying. After drying, the plates were infested with L2 larvae (6 to 10 per well). The samples were assessed for mortality and growth inhibition in comparison to untreated samples 4 days after infestation.

[4] = system: Plutella xylostella (Diamond back moth); assay: Plutella xylostella (Diamond back moth); settings: 192 h, application rate of 200 ppm, artificial diet treated by pipetting, Plutella eggs, 8 days after infestation, read-out: effect in at least one of the two categories (mortality or growth inhibition)
Experimental: After drying, Plutella eggs were pipetted through a plastic stencil onto a gel blotting paper and the plate was closed with it. The samples were assessed for mortality and growth inhibition in comparison to untreated samples 8 days after infestation.

[5] = system: Bemisia tabaci (Cotton White Fly); assay: Bemisia tabaci (Cotton White Fly): Feeding/Contact Activity; settings: foliar, 144 h, application rate of 200 ppm, cotton leaf discs sprayed, adult white flies, 6 days after incubation
Experimental: Example B1: Bemisia tabaci (Cotton White Fly): Feeding/Contact Activity
Cotton leaf discs were placed on agar in 24-well microtiter plates and sprayed with aqueous test solutions prepared from 10′000 ppm DMSO stock solutions. After drying the leaf discs were infested with adult white flies. The samples were checked for mortality 6 days after incubation.

[6] = system: Euschistus heros (Neotropical Brown Stink Bug); assay: Euschistus heros (Neotropical Brown Stink Bug); settings: 120 h, application rate of 200 ppm, soybean leaves sprayed, N2 nymphs, 5 days after infestation, read-out: effect in at least one of the two categories (mortality or growth inhibition)
Experimental: Example B3: Euschistus heros (Neotropical Brown Stink Bug)
Soybean leaves on agar in 24-well microtiter plates were sprayed with aqueous test solutions prepared from 10′000 ppm DMSO stock solutions. After drying the leaves were infested with N2 nymphs. The samples were assessed for mortality and growth inhibition in comparison to untreated samples 5 days after infestation.

[7] = system: Tetranychus urticae (Two-Spotted Spider Mite); assay: Tetranychus urticae (Two-Spotted Spider Mite): Feeding/Contact Activity; settings: foliar, 192 h, application rate of 200 ppm, bean leaf discs sprayed, mite population of mixed ages (mobile stages), 8 days after infestation
Experimental: Example B11: Tetranychus urticae (Two-Spotted Spider Mite):Feeding/Contact Activity
Bean leaf discs on agar in 24-well microtiter plates were sprayed with aqueous test solutions prepared from 10,000 ppm DMSO stock solutions. After drying the leaf discs were infested with a mite population of mixed ages. The samples were assessed for mortality on mixed population (mobile stages) 8 days after infestation.

[8] = system: Frankliniella occidentalis (Western Flower Thrips); assay: Frankliniella occidentalis (Western Flower Thrips): Feeding/Contact Activity, sunflower leaf discs; settings: foliar, 168 h, application rate of 200 ppm, sunflower leaf discs sprayed, population of mixed ages, 7 days after infestation
Experimental: Example B4: Frankliniella occidentalis (Western Flower Thrips):Feeding/Contact Activity
(§1) Sunflower leaf discs were placed on agar in 24-well microtiter plates and sprayed with aqueous test solutions prepared from […] stock solutions. After drying the leaf discs were infested with a Frankliniella population of mixed ages. The samples were assessed for mortality 7 days after infestation.

[9] = system: Myzus persicae (Green Peach Aphid); assay: Myzus persicae (Green Peach Aphid) Feeding/Contact Activity, eggplant leaf discs; settings: foliar, 144 h, application rate of 200 ppm, eggplant leaf discs sprayed, aphid population of mixed ages, 6 days after infestation, read-out: growth inhibition
Source text: Example B8: Myzus persicae (Green Peach Aphid) Feeding/Contact Activity Eggplant leaf discs were placed onto agar in a 24-well microtiter plate and sprayed with aqueous test solutions prepared from 10′000 ppm DMSO stock solutions. After drying, the leaf discs were infested with an aphid population of mixed ages. […]

[10] = system: Spodoptera littoralis (Egyptian Cotton Leaf Worm); assay: Spodoptera littoralis (Egyptian Cotton Leaf Worm); settings: foliar, 72 h, application rate of 200 ppm, cotton leaf discs sprayed, five L1 larvae, 3 days after infestation, read-out: control (mortality, anti-feeding effect, growth inhibition)
Experimental: Example B10: Spodoptera littoralis (Egyptian Cotton Leaf Worm)
Cotton leaf discs were placed onto agar in 24-well microtiter plates and sprayed with aqueous test solutions prepared from 10′000 ppm DMSO stock solutions. After drying the leaf discs were infested with five L1 larvae. The samples were assessed for mortality, anti-feeding effect, and growth inhibition in comparison to untreated samples 3 days after infestation. Control of Spodoptera littoralis by a test sample is given when at least one of the categories mortality, anti-feedant effect, and growth inhibition is higher than the untreated sample.

[11] = system: Frankliniella occidentalis (Western Flower Thrips); assay: Frankliniella occidentalis (Western Flower Thrips) Feeding/Contact Activity, bean leaf discs; settings: foliar, 96 h, application rate of 200 ppm, bean leaf discs sprayed, population of mixed ages, 4 days after infestation, read-out: growth inhibition
Experimental: as §1, with “Example B5: Frankliniella occidentalis (Western Flower Thrips) Feeding/Contact Activity Bean” for “Sunflower”, “4” for “7”

CCC(=O)NCc1cc(OC[C@H](C)N(COC)S(=O)(=O)C(F)(F)F)ccc1Cl [P-3, N-[[2-chloro-5-[(2S)-2-[methoxymethyl(tri-fluoromethylsulfonyl)-amino]propoxy]phenyl]methyl]propanamide]
≥ 80%: mortality at 200 ppm [1] | mortality at 12 ppm [2] | percent effect (mortality or growth inhibition) at 200 ppm [3] | percent effect (mortality or growth inhibition) at 200 ppm [4] | mortality at 200 ppm [5] | percent effect (mortality or growth inhibition) at 200 ppm [6] | mortality at 200 ppm [7] | mortality at 200 ppm [8] | inhibition at 200 ppm [9]

CCC(=O)NCc1cc(OC[C@H](C)N(C(=O)CC)S(=O)(=O)C(F)(F)F)ccc1Cl [P-18, N-[[2-chloro-5-[(2S)-2-[propanoyl(trifluoro-methylsulfonyl)amino]propoxy]phenyl]methyl] propanamide]
≥ 80%: mortality at 200 ppm [10] | inhibition at 200 ppm [11] | mortality at 12 ppm [2] | percent effect (mortality or growth inhibition) at 200 ppm [3] | percent effect (mortality or growth inhibition) at 200 ppm [4] | percent effect (mortality or growth inhibition) at 200 ppm [6] | mortality at 200 ppm [7] | inhibition at 200 ppm [9]
